Like-named read-outs stand apart in the source and are kept apart here.
What was measured:
[1] = system: Key Grass and Sedge Weeds as well as Grass Crops; assay: Post-Emergent Test II: postemergent herbicidal activity, visual rating after 14 d (Table 8); format: in vivo; details: post-emergence, 336 h; for pest or weed control at 35 g/ha: 35 g ai/ha; for pest or weed control at 70 g/ha: 70 g ai/ha; for pest or weed control at 140 g/ha: 140 g ai/ha
Method in brief: (§1)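 Visual scoring at 14 d, 0 (no injury) to 100 (complete kill), relative to untreated plants. Postemergent overhead track-sprayer application, 187 L/ha, at a top rate plus serial ½×–1/16× rates, to plants grown 7–21 d at about 23–29° C day under a 15 h photoperiod, then subirrigated.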

[2] = system: Key Broadleaf Weed and Crop Species; assay: Post-Emergent Test II: postemergent herbicidal activity, visual rating after 14 d (Table 7); format: in vivo; details: post-emergence, 336 h; for pest or weed control at 35 g/ha: 35 g ai/ha; for pest or weed control at 70 g/ha: 70 g ai/ha; for pest or weed control at 140 g/ha: 140 g ai/ha
Method in brief: as §1

[3] = barnyardgrass (Echinochloa crus-galli), read-out: Visual Growth Reduction (%) 14 Days After Application, ECHCG
[4] = giant foxtail (Setaria faberi), read-out: Visual Growth Reduction (%) 14 Days After Application, SETFA
[5] = rice (Oryza sativa), read-out: Visual Growth Reduction (%) 14 Days After Application, ORYSA
[6] = wheat, spring (Triticum aestivum), read-out: Visual Growth Reduction (%) 14 Days After Application, TRZAS
[7] = yellow nutsedge (Cyperus esculentus), read-out: Visual Growth Reduction (%) 14 Days After Application, CYPES
[8] = ABUTH: velvetleaf (Abutilon theophrasti), read-out: Visual Growth Reduction (%) 14 Days After Application ABUTH
[9] = AMARE: redroot pigweed (Amaranthus retroflexus), read-out: Visual Growth Reduction (%) 14 Days After Application AMARE
[10] = BRSNN: oilseed rape, canola (Brassica napus), read-out: Visual Growth Reduction (%) 14 Days After Application BRSNN
[11] = CHEAL: lambsquarters (Chenopodium album), read-out: Visual Growth Reduction (%) 14 Days After Application CHEAL
[12] = EPHHL: wild poinsettia (Euphorbia heterophylla), read-out: Visual Growth Reduction (%) 14 Days After Application EPHHL
[13] = HELAN: sunflower (Helianthus annuus), read-out: Visual Growth Reduction (%) 14 Days After Application HELAN
[14] = maize, corn (Zea mays), read-out: Visual Growth Reduction (%) 14 Days After Application, ZEAMX

Structure (SMILES)	pest or weed control at 35 g/ha [1, 3]	pest or weed control at 70 g/ha [1, 3]	pest or weed control at 140 g/ha [1, 3]	pest or weed control at 35 g/ha [1, 4]	pest or weed control at 70 g/ha [1, 4]	pest or weed control at 140 g/ha [1, 4]	pest or weed control at 35 g/ha [1, 5]	pest or weed control at 70 g/ha [1, 5]	pest or weed control at 140 g/ha [1, 5]	pest or weed control at 35 g/ha [1, 6]	pest or weed control at 70 g/ha [1, 6]	pest or weed control at 140 g/ha [1, 6]	pest or weed control at 35 g/ha [1, 7]	pest or weed control at 70 g/ha [1, 7]	pest or weed control at 140 g/ha [1, 7]	pest or weed control at 35 g/ha [2, 8]	pest or weed control at 70 g/ha [2, 8]	pest or weed control at 140 g/ha [2, 8]	pest or weed control at 35 g/ha [2, 9]	pest or weed control at 70 g/ha [2, 9]	further results
COC(=O)c1nc(-c2ccc(Cl)c3c2OC(F)(F)O3)c(C)c(N)c1Cl [Compound 94]	0 to 29%	0 to 29%	0 to 29%	0 to 29%	0 to 29%	0 to 29%	0 to 29%	0 to 29%	0 to 29%	0 to 29%	0 to 29%	0 to 29%	0 to 29%	0 to 29%	0 to 29%	30 to 44%	45 to 59%	45 to 59%	95 to 100%	95 to 100%	pest or weed control at 140 g/ha [2, 9]: 95 to 100%; pest or weed control at 35 g/ha [2, 10]: 0 to 29%; pest or weed control at 70 g/ha [2, 10]: 0 to 29%; pest or weed control at 140 g/ha [2, 10]: 0 to 29%; pest or weed control at 35 g/ha [2, 11]: 75 to 84%; pest or weed control at 70 g/ha [2, 11]: 85 to 94%; pest or weed control at 140 g/ha [2, 11]: 85 to 94%; pest or weed control at 35 g/ha [2, 12]: 0 to 29%; pest or weed control at 70 g/ha [2, 12]: 0 to 29%; pest or weed control at 140 g/ha [2, 12]: 0 to 29%; pest or weed control at 35 g/ha [2, 13]: 60 to 74%; pest or weed control at 70 g/ha [2, 13]: 85 to 94%; pest or weed control at 140 g/ha [2, 13]: 95 to 100%
COC(=O)c1nc(-c2ccc(Cl)c3c2OC(F)(F)O3)nc(N)c1OC [Compound 95]	0 to 29%	0 to 29%	0 to 29%	0 to 29%	0 to 29%	0 to 29%	0 to 29%	0 to 29%	0 to 29%	0 to 29%	0 to 29%	0 to 29%	0 to 29%	45 to 59%	45 to 59%	45 to 59%	75 to 84%	75 to 84%	95 to 100%	95 to 100%	pest or weed control at 35 g/ha [1, 14]: 0 to 29%; pest or weed control at 70 g/ha [1, 14]: 0 to 29%; pest or weed control at 140 g/ha [1, 14]: 0 to 29%; pest or weed control at 140 g/ha [2, 9]: 95 to 100%; pest or weed control at 35 g/ha [2, 10]: 45 to 59%; pest or weed control at 70 g/ha [2, 10]: 45 to 59%; pest or weed control at 140 g/ha [2, 10]: 60 to 74%; pest or weed control at 35 g/ha [2, 11]: 95 to 100%; pest or weed control at 70 g/ha [2, 11]: 95 to 100%; pest or weed control at 140 g/ha [2, 11]: 95 to 100%; pest or weed control at 35 g/ha [2, 12]: 0 to 29%; pest or weed control at 70 g/ha [2, 12]: 0 to 29%; pest or weed control at 140 g/ha [2, 12]: 0 to 29%; pest or weed control at 35 g/ha [2, 13]: 95 to 100%; pest or weed control at 70 g/ha [2, 13]: 95 to 100%; pest or weed control at 140 g/ha [2, 13]: 95 to 100%
COc1c(N)nc(-c2ccc(Cl)c3c2OC(F)(F)O3)nc1C(=O)O [Compound 96]	0 to 29%	0 to 29%	0 to 29%	0 to 29%	0 to 29%	0 to 29%	0 to 29%	0 to 29%	0 to 29%	0 to 29%	30 to 44%	45 to 59%	0 to 29%	0 to 29%	0 to 29%	75 to 84%	60 to 74%	85 to 94%	95 to 100%	95 to 100%	pest or weed control at 35 g/ha [1, 14]: 30 to 44%; pest or weed control at 70 g/ha [1, 14]: 60 to 74%; pest or weed control at 140 g/ha [1, 14]: 60 to 74%; pest or weed control at 140 g/ha [2, 9]: 95 to 100%; pest or weed control at 35 g/ha [2, 10]: 0 to 29%; pest or weed control at 70 g/ha [2, 10]: 75 to 84%; pest or weed control at 140 g/ha [2, 10]: 85 to 94%; pest or weed control at 35 g/ha [2, 11]: 95 to 100%; pest or weed control at 70 g/ha [2, 11]: 95 to 100%; pest or weed control at 140 g/ha [2, 11]: 95 to 100%; pest or weed control at 35 g/ha [2, 12]: 0 to 29%; pest or weed control at 70 g/ha [2, 12]: 0 to 29%; pest or weed control at 140 g/ha [2, 12]: 0 to 29%; pest or weed control at 35 g/ha [2, 13]: 95 to 100%; pest or weed control at 70 g/ha [2, 13]: 95 to 100%; pest or weed control at 140 g/ha [2, 13]: 95 to 100%
COC(=O)c1nc(-c2ccc(F)c3c2OCO3)nc(N)c1OC [Compound 97]	0 to 29%	0 to 29%	0 to 29%	0 to 29%	0 to 29%	0 to 29%	0 to 29%	0 to 29%	0 to 29%	0 to 29%	0 to 29%	0 to 29%	0 to 29%	0 to 29%	0 to 29%	0 to 29%	0 to 29%	0 to 29%	0 to 29%	0 to 29%	pest or weed control at 35 g/ha [1, 14]: 0 to 29%; pest or weed control at 70 g/ha [1, 14]: 0 to 29%; pest or weed control at 140 g/ha [1, 14]: 0 to 29%; pest or weed control at 140 g/ha [2, 9]: 0 to 29%; pest or weed control at 35 g/ha [2, 10]: 0 to 29%; pest or weed control at 70 g/ha [2, 10]: 0 to 29%; pest or weed control at 140 g/ha [2, 10]: 0 to 29%; pest or weed control at 35 g/ha [2, 11]: 60 to 74%; pest or weed control at 70 g/ha [2, 11]: 85 to 94%; pest or weed control at 140 g/ha [2, 11]: 60 to 74%; pest or weed control at 35 g/ha [2, 12]: 0 to 29%; pest or weed control at 70 g/ha [2, 12]: 0 to 29%; pest or weed control at 140 g/ha [2, 12]: 0 to 29%; pest or weed control at 35 g/ha [2, 13]: 60 to 74%; pest or weed control at 70 g/ha [2, 13]: 75 to 84%; pest or weed control at 140 g/ha [2, 13]: 85 to 94%

Source: patent US9149038B2, “4-amino-6-(heterocyclic)picolinates and 6-amino-2-(heterocyclic)pyrimidine-4-carboxylates and their use as herbicides” (Dow AgroSciences LLC, priority 2013, dated 2015)
